Results on 2 compounds are retold here after patent US11474106B2, “Methods for cytotoxic chemotherapy-based predictive assays” (ACCELERATED MEDICAL DIAGNOSTICS, INC., priority 2015, dated 2022).

A word on the IC50: it is the midpoint of a concentration-inhibition curve.

The test system of experiment [1] is PDX Model BL0440. As to the kind of experiment: Drug-DNA adduct frequency in PDX tumor tissue by AMS. It counts as in vivo, NSG mice. The conditions noted are these: microdose 0.092 mg/kg gemcitabine, 24 h. The source says: (§1) Female NSG mice (5-8 weeks of age, body weight: 20 to 25 g) were obtained from Jackson Laboratories (CA, USA). All animals were kept under pathogen-free conditions and were allowed to acclimatize for at least 4 days prior to any experiments. PDX models bearing the indicated patient derived xenografts were created by subcutaneous injection at the flank of 1 mm^3 tumor tissue. To establish multiple PDXs to allow efficacy studies with multiple drugs, PDXs from passage 2-4 were minced into 1 mm^3 sections and injected subcutaneously into multiple mice. At least 3 mice were used for each treatment group. Tumors were allowed to grow to at about 100 mm^3 before being assessed for drug sensitivity or the induction of DNA adducts by the administration of a microdose or a therapeutic dose of labeled drug. […] Tumor growth was assessed by measuring palpable tumors with a caliper and calculating tumor volume. Drug-DNA adduct frequencies were measured in tumor tissue collected 24 hours after intravenous injection of labeled drug and stored at −80° C. until DNA isolation. DNA was isolated using a modified Wizard procedure (Promega), quantitated by spectrophotometry, and then stored frozen at −20° C. until AMS analysis. Ten micrograms of DNA per sample was converted to graphite and measured by AMS for 14C quantification as previously described. […]

In experiment [2] the test system is PDX Model BL0293. The description is as above. It counts as in vivo, NSG mice. The conditions noted are these: microdose 0.092 mg/kg gemcitabine, 24 h.
Excerpt: as §1

Experiment [3] concerns PDX Model BL0645. The description is as above. Format: in vivo, NSG mice. To be noted: 24 h. The source says:
(§2) Female NSG mice (5-8 weeks of age, body weight: 20 to 25 g) were obtained from Jackson Laboratories (CA, USA). All animals were kept under pathogen-free conditions and were allowed to acclimatize for at least 4 days prior to any experiments. PDX models bearing the indicated patient derived xenografts were created by subcutaneous injection at the flank of 1 mm^3 tumor tissue. To establish multiple PDXs to allow efficacy studies with multiple drugs, PDXs from passage 2-4 were minced into 1 mm^3 sections and injected subcutaneously into multiple mice. At least 3 mice were used for each treatment group. Tumors were allowed to grow to at about 100 mm^3 before being assessed for drug sensitivity or the induction of DNA adducts by the administration of a microdose or a therapeutic dose of labeled drug. To assess tumor response to chemotherapy, cisplatin was administered at 2 mg/kg IV every 7 days for a total of 3 cycles, or gemcitabine was administered at 150 mg/kg IP every 7 days for a total of 4 cycles. G/C combination chemotherapy consisted of the simultaneous administration of both drugs using the schema described above. Tumor growth was assessed by measuring palpable tumors with a caliper and calculating tumor volume. Drug-DNA adduct frequencies were measured in tumor tissue collected 24 hours after intravenous injection of labeled drug and stored at −80° C. until DNA isolation. DNA was isolated using a modified Wizard procedure (Promega), quantitated by spectrophotometry, and then stored frozen at −20° C. until AMS analysis. Ten micrograms of DNA per sample was converted to graphite and measured by AMS for 14C quantification as previously described.
(§3) NSG mice bearing the indicated PDX tumors were injected with a microdose of ^14C-labeled carboplatin (FIG. 22A) or ^14C-labeled gemcitabine (FIG. 22B). The microdose of ^14C-labeled carboplatin was 0.375 mg/kg carboplatin, 50,000 dpm/g. The microdose of ^14C-labeled gemcitabine was 0.092 mg/kg gemcitabine, 1000 dpm/g. The doses of each drug administered to the mice were chosen to target 1 μM in plasma concentration of carboplatin and 0.3 μM in plasma concentration of gemcitabine. These plasma concentrations represent 1% of the approximate peak plasma concentration during human chemotherapy. Animals were sacrificed after 24 h and drug-DNA adduct frequency was determined from collected tumor tissue by AMS measurements of ^14C in tumor DNA. Carboplatin DNA-adduct levels correlate with PDX model sensitivity to cisplatin at 24h after microdosing (FIG. 22A). […]
(§4) In this example we test whether gemcitabine/carboplatin (G/Carbo) combination therapy has an effect on the formation of drug-DNA adducts in this synergistic tumor model. […] Carboplatin-DNA monoadducts were measured in tumor tissue 24 h after dosing. […]

For experiment [4], the system named is PDX Model BL0269. The description is as above. It counts as in vivo, NSG mice.
Excerpt: as §2, §3, §4

Experiment [5] deals with 5637. Description: MTT assay (IC50). It counts as cell-based, human. The protocol: Thus, we measured the IC50 of the six NSCLC cell lines from Example 2 to both cisplatin and carboplatin to determine if the sensitivity of these six NSCLC cell lines to the two drugs are correlated.
The cell lines were purchased from the American Type Culture Collection (ATCC, Manassas, Va.) and cultured in the recommended media.
Drug-DNA adduct formation and repair was measured by accelerator mass spectrometry.
These two cell lines were also cultured with a range of concentrations of cisplatin, carboplatin, gemcitabine, doxorubicin, methotrexate and vinblastine for 72 hours to determine IC50 for these other drugs (FIG. 16C). These drugs were chosen because of their frequent use in the treatment of bladder cancer.

In experiment [6] the test system is A549. Description: MTT assay (IC50). Format: cell-based, human. On the procedure: Six non-small cell lung cancer (NSCLC) cell lines were treated in culture with [^14C]carboplatin. Carboplatin-DNA monoadduct levels over time were determined by measuring ^14C content in genomic DNA with accelerator mass spectrometry (AMS). Cellular sensitivity to carboplatin and cisplatin was analyzed by the MTT assay (Henderson et al., International Journal of Cancer 2011).
Human NSCLC cell lines H23, H460, H727, HCC827, H1975, and A549 were purchased from ATCC and were cultured with the recommended medium. The MTT assay was performed as previously reported to determine the drug concentration required to inhibit cell growth by 50% (IC50) of cisplatin and carboplatin. [^14C]Carboplatin (at 53 mCi/mmol) was mixed with unlabeled carboplatin to achieve the specific activities required for microdoses and therapeutic doses. Table 1 lists the six NSCLC cell lines and summarizes their IC50 characteristics, induced carboplatin-DNA monoadducts when treated with [^14C]carboplatin, and p and r^2 values for correlation analysis to the IC50 concentrations.

For the compound `Nc1ccn([C@@H]2O[C@H](CO)[C@@H](O)C2(F)F)[14c](=O)n1` [[^14C]gemcitabine, 2′-Deoxy-2′,2′-difluorocytidine, [cytosine-2-^14C]-], the gemcitabine adduct levels is listed as 13.1±10.2 in experiment [1]; 10.0±5.92 in experiment [2]; 2.44±0.880 adducts per 10^8 nucleotides in experiment [3] (BL0645 tumor DNA, microdose 0.092 mg/kg gemcitabine, alone or with carboplatin 0.375 mg/kg); 3.17±0.278 in experiment [4] (BL0269 tumor DNA, microdose 0.092 mg/kg gemcitabine, 24 h (FIG. 22B)). Besides, the gemcitabine adduct level in experiment [3] (BL0645, therapeutic dose gemcitabine 9.2 mg/kg, alone or with carboplatin 37.5 mg/kg) was 169.2±9.129 adducts per 10^8 nucleotides. Further, in experiment [4] (BL0269 control experiment (FIG. 23F), microdose gemcitabine 0.092 mg/kg, alone or with carboplatin 0.375 mg/kg), the gemcitabine-DNA adduct levels is listed as 2.44±0.492 adducts per 10^8 nucleotides.

In the case of `N.N.[Cl][Pt][Cl]` [cisplatin], the 50% inhibitory concentration (IC50) in experiment [5] (5637 (Table 2)) turned out to be 2.43 ± 0.45 µM; in experiment [5] (5637 (parental, Example 11), MTT, 72 hours), 0.59 µM; in experiment [6], 26.3 ± 9.26 µM.
